Test results reported in patent US20210221848A1, “POLYMYXIN DERIVATIVES AND THEIR USE IN COMBINATION THERAPY TOGETHER WITH DIFFERENT ANTIBIOTICS” (priority 2014, published 2021).
Like-named read-outs stand apart in the source and are kept apart here.

How the values were obtained:
[1] = test system: E. coli strains with elevated MICs to Polymyxin B; assay: MIC against strains with elevated MICs to Polymyxin B; format: cell-based, Escherichia coli; settings: Table 6D; for MIC E. coli 058: strain 058, elevated MIC to Polymyxin B; for MIC E. coli 059: strain 059, elevated MIC to Polymyxin B; for MIC E. coli 060: strain 060, elevated MIC to Polymyxin B; for MIC E. coli 061: strain 061, elevated MIC to Polymyxin B
Experimental: (§1) The inoculum was prepared by making a direct suspension of isolated colonies (selected from an 18-24 hour Mueller-Hinton agar plate) adjusted to the 0.5 McFarland standard. […] The assays were performed in duplicate. […] In cases where the duplicate values varied by less than 2-fold, the lower of the two values is reported. If a variation of greater than 2-fold was observed, the assay was considered non-valid. Several of the compounds were subjected to multiple tests, and where this is the case, the MIC reflects the modal value obtained.
(§2) The Further Synthesis Examples were tested against a range of Gram negative bacteria, and tested for HK-2 cell toxicity. All the worked examples, including the Synthesis and Further Synthesis Examples, were also tested against a range of Gram negative bacteria that are resistant to Polymyxin B (i.e. those strains where Polymyxin B has an elevated MIC value).

[2] = test system: K. pneumoniae strains with elevated MICs to Polymyxin B; assay: as above; format: cell-based, Klebsiella pneumoniae; settings: Table 6D; for MIC K. pneumoniae 062: strain 062, elevated MIC to Polymyxin B; for MIC K. pneumoniae 063: strain 063, elevated MIC to Polymyxin B; for MIC K. pneumoniae 064: strain 064, elevated MIC to Polymyxin B; for MIC K. pneumoniae 655: strain 655, elevated MIC to Polymyxin B
Experimental: as §1, §2

[3] = test system: P. aeruginosa strains with elevated MICs to Polymyxin B; assay: as above; format: cell-based, Pseudomonas aeruginosa; settings: Table 6D; for MIC P. aeruginosa 065: strain 065, elevated MIC to Polymyxin B; for MIC P. aeruginosa 066: strain 066, elevated MIC to Polymyxin B; for MIC P. aeruginosa 067: strain 067, elevated MIC to Polymyxin B
Experimental: as §1, §2

[4] = test system: A. baumanii strains with elevated MICs to Polymyxin B; assay: as above; format: cell-based, Acinetobacter baumannii; settings: Table 6D; for MIC A. baumannii 053: strain 053, elevated MIC to Polymyxin B; for MIC A. baumannii 056: strain 056, elevated MIC to Polymyxin B; for MIC A. baumannii 068: strain 068, elevated MIC to Polymyxin B; for MIC A. baumannii 070: strain 070, elevated MIC to Polymyxin B
Experimental: as §1, §2

[5] = absence of a second agent, Table 6B

Substance	MIC E. coli 058 [1]	MIC E. coli 059 [1]	MIC E. coli 060 [1]	MIC E. coli 061 [1]	MIC K. pneumoniae 062 [2]	MIC K. pneumoniae 063 [2]	MIC K. pneumoniae 064 [2]	MIC K. pneumoniae 655 [2]	MIC P. aeruginosa 065 [3]	MIC P. aeruginosa 066 [3]	MIC P. aeruginosa 067 [3]	MIC A. baumannii 053 [4]	MIC A. baumannii 056 [4]	MIC A. baumannii 068 [4]	MIC A. baumannii 070 [4]	MIC, E. coli ATCC 25922 (E. coli; sole activity, Table 6C)	MIC, K. pneumoniae ATCC 4352 (K. pneumoniae; sole activity, Table 6C)	MIC, P. aeruginosa ATCC 27853 (P. aeruginosa; sole activity, Table 6C)	MIC, P. aeruginosa CCUG 59347 (P. aeruginosa; sole activity, Table 6C)	MIC, A. baumannii ATCC BAA-747 (A. baumannii; sole activity, Table 6C)	also measured
trans-5-phenyl- piperidine-3- carbonyl L-Thr-L- Dap-polymyxin B heptapeptide [Example D84]	4 micrograms/mL	8 micrograms/mL	4 micrograms/mL	8 micrograms/mL	>64 micrograms/mL	32 micrograms/mL	8 micrograms/mL	16 micrograms/mL	8 micrograms/mL	2 micrograms/mL	>64 micrograms/mL	>64 micrograms/mL	32 micrograms/mL	8 micrograms/mL	16 micrograms/mL	0.25 micrograms/mL	0.125 micrograms/mL	0.5 micrograms/mL	0.5 micrograms/mL	0.06 micrograms/mL	MIC, E. coli NCTC 13441 (E. coli; sole activity, Table 6C): 0.06 micrograms/mL; MIC, A. baumannii NCTC 13424 (A. baumannii; sole activity, Table 6C): 0.25 micrograms/mL
trans-4- octylpyrrolidine-3- carbonyl polymyxin B nonapeptide [Example D31]	2 micrograms/mL	8 micrograms/mL	4 micrograms/mL	16 micrograms/mL	64 micrograms/mL	>128 micrograms/mL	64 micrograms/mL	>256 micrograms/mL	16 micrograms/mL	32 micrograms/mL	>64 micrograms/mL	>128 micrograms/mL	64 micrograms/mL	4 micrograms/mL	4 micrograms/mL						MIC, E. coli ATCC 25922 (E. coli; [5]): 2 micrograms/mL; MIC, E. coli NCTC 13441 (E. coli; [5]): 1 micrograms/mL; MIC, K. pneumoniae ATCC 4352 (K. pneumoniae; [5]): 0.5 micrograms/mL; MIC, P. aeruginosa ATCC 27853 (P. aeruginosa; [5]): 0.5 micrograms/mL; MIC, P. aeruginosa CCUG 59347 (P. aeruginosa; [5]): 1 micrograms/mL; MIC, A. baumannii ATCC BAA-747 (A. baumannii; [5]): 1 micrograms/mL; MIC, A. baumannii NCTC 13424 (A. baumannii; [5]): 2 micrograms/mL
(cis-5-octylpiperidine)- 3-carbonyl polymyxin B nonapeptide [Example D21]	1 micrograms/mL	0.5 micrograms/mL	1 micrograms/mL	2 micrograms/mL	2 micrograms/mL	32 micrograms/mL	1 micrograms/mL	32 micrograms/mL		2 micrograms/mL	4 micrograms/mL	8 micrograms/mL	4 micrograms/mL	1 micrograms/mL	2 micrograms/mL						MIC, E. coli ATCC 25922 (E. coli; [5]): 0.5 micrograms/mL; MIC, E. coli NCTC 13441 (E. coli; [5]): 0.5 micrograms/mL; MIC, K. pneumoniae ATCC 4352 (K. pneumoniae; [5]): 0.25 micrograms/mL; MIC, K. pneumoniae ATCC BAA-2146 (K. pneumoniae; [5]): 1 micrograms/mL; MIC, P. aeruginosa ATCC 27853 (P. aeruginosa; [5]): 0.5 micrograms/mL; MIC, P. aeruginosa CCUG 59347 (P. aeruginosa; [5]): 0.5 micrograms/mL; MIC, A. baumannii ATCC BAA-747 (A. baumannii; [5]): 0.5 micrograms/mL; MIC, A. baumannii NCTC 13424 (A. baumannii; [5]): 2 micrograms/mL
1-(2- trifluoromethylben- zyl)piperazine- 2-carbonyl L-Thr- L-Dap-polymyxin B heptapeptide [Example D71]	1 micrograms/mL	8 micrograms/mL	4 micrograms/mL	8 micrograms/mL	32 micrograms/mL	16 micrograms/mL	4 micrograms/mL	32 micrograms/mL	0.5 micrograms/mL	1 micrograms/mL	16 micrograms/mL	64 micrograms/mL	16 micrograms/mL	4 micrograms/mL	8 micrograms/mL	0.25 micrograms/mL	0.25 micrograms/mL	0.5 micrograms/mL	1 micrograms/mL	0.5 micrograms/mL	MIC, E. coli NCTC 13441 (E. coli; sole activity, Table 6C): 0.25 micrograms/mL; MIC, K. pneumoniae ATCC BAA-2146 (K. pneumoniae; sole activity, Table 6C): 0.5 micrograms/mL; MIC, A. baumannii NCTC 13424 (A. baumannii; sole activity, Table 6C): 0.25 micrograms/mL
(S)-4-amino-2- (((S)-6- methyloctanoyl)ox- y)butanoyl polymyxin B nonapeptide [Example D93]	8 micrograms/mL								2 micrograms/mL							0.25 micrograms/mL	0.25 micrograms/mL	0.25 micrograms/mL	1 micrograms/mL	0.25 micrograms/mL	MIC, A. baumannii NCTC 13424 (A. baumannii; sole activity, Table 6C): 0.5 micrograms/mL
(cis-5- cyclohexylpiperidine)- 3-carbonyl L-Thr-L- Dap-polymyxin B heptapeptide [Example D44]	2 micrograms/mL						2 micrograms/mL	32 micrograms/mL	1 micrograms/mL	0.5 micrograms/mL	64 micrograms/mL										MIC, E. coli ATCC 25922 (E. coli; [5]): 1 micrograms/mL; MIC, E. coli NCTC 13441 (E. coli; [5]): 0.5 micrograms/mL; MIC, K. pneumoniae ATCC BAA-2146 (K. pneumoniae; [5]): 0.5 micrograms/mL; MIC, P. aeruginosa ATCC 27853 (P. aeruginosa; [5]): 0.25 micrograms/mL; MIC, P. aeruginosa CCUG 59347 (P. aeruginosa; [5]): 0.5 micrograms/mL; MIC, A. baumannii ATCC BAA-747 (A. baumannii; [5]): 0.25 micrograms/mL
1-(2- trifluoromethylben- zyl)piperazine- 2-carbonyl polymyxin E nonapeptide [Example D72]		16 micrograms/mL	8 micrograms/mL	16 micrograms/mL	64 micrograms/mL	32 micrograms/mL		64 micrograms/mL				>128 micrograms/mL	128 micrograms/mL	64 micrograms/mL	128 micrograms/mL	0.25 micrograms/mL	0.125 micrograms/mL	0.5 micrograms/mL	1 micrograms/mL	0.125 micrograms/mL	MIC, E. coli NCTC 13441 (E. coli; sole activity, Table 6C): 0.25 micrograms/mL; MIC, K. pneumoniae ATCC BAA-2146 (K. pneumoniae; sole activity, Table 6C): 0.25 micrograms/mL
Cis-5-(N- isobutylsulfamoyl) piperidine-3- carbonyl L-Thr-L- Dap-polymyxin B heptapeptide [Example D94]	16 micrograms/mL								32 micrograms/mL							0.03 micrograms/mL		0.5 micrograms/mL	1 micrograms/mL	0.06 micrograms/mL	MIC, A. baumannii NCTC 13424 (A. baumannii; sole activity, Table 6C): 0.06 micrograms/mL
